Results: patent US6903097B2 (dated 2005)

melting point | Structure (SMILES)
201 to 206 °C | Cn1nc(C(=O)NCc2ccc(Cl)cc2)c(=O)c2cc(C#CCO)cnc21
179 to 181 °C | O=C(NCc1ccc(Cl)cc1)c1cnc2ccc(C#CCO)cn2c1=O
200 °C | O=C(NCc1ccc(Cl)cc1)c1ccc2sc(CN3CCOCC3)cc2c1O
98 °C (dec.) | CN1N=C(C(=O)NCc2ccc(Cl)cc2)S(=O)(=O)c2cc(C#CCO)sc21
117 to 120 °C | O=C(NCc1ccc(Cl)cc1)c1noc2ccc(C#CCO)cc2c1=O
182 to 184 °C | O=C(NCc1ccc(Cl)cc1)c1nn(-c2ccccc2)c2sc(CN3CCOCC3)cc2c1=O
167 to 168 °C | CN1c2ccc(C#CCO)cc2C(O)=C(C(=O)NCc2ccc(Cl)cc2)S1(=O)=O
185 to 186 °C | O=C(NCc1ccc(Cl)cc1)c1coc2ccc(C#CCO)cc2c1=O
